From patent publication US8338565B2, “Macrocyclic compounds for inhibition of tumor necrosis factor alpha” (Ensemble Therapeutics Corporation, priority 2008, dated 2012)
Numbered stars: 1 amine (or outer) side, 2 acyl side, 3 side chain; on linkers, the order of the positions; unused ones are H or OH. Bridge positions count the residues as written; N and C are the ends. Square brackets hold non-standard residues; d marks the D form. Peptide text beside a SMILES is read from it. Phe(4-COOH) = N[C@@H](Cc1ccc(C(=O)O)cc1)C(=O)O; Phe(2,4-Cl2) = N[C@@H](Cc1ccc(Cl)cc1Cl)C(=O)O; Bip = N[C@@H](Cc1ccc(-c2ccccc2)cc1)C(=O)O; dBip = N[C@H](Cc1ccc(-c2ccccc2)cc1)C(=O)O; dPhe(4-NH2) = Nc1ccc(C[C@@H](N)C(=O)O)cc1; Phe(4-Br) = N[C@@H](Cc1ccc(Br)cc1)C(=O)O; Phe(4-NH2) = Nc1ccc(C[C@H](N)C(=O)O)cc1; d(hPhe) = N[C@H](CCc1ccccc1)C(=O)O; hPhe = N[C@@H](CCc1ccccc1)C(=O)O; d2Thi = N[C@H](Cc1cccs1)C(=O)O; Suc = O=C(CCC(=O)[*:2])[*:1]; Ac3c = NC1(C(=O)O)CC1; Aib = CC(C)(N)C(=O)O; Ava = NCCCCC(=O)O; GABA = NCCCC(=O)O; βAla = NCCC(=O)O

These compounds were tested against T1, TNFα / TNFα receptor (TNFα R1/Fc) (Homo sapiens, UniProt P01375) (assay: Inhibition of binding of TNFα to the TNFα receptor (plate ELISA competition)). Conditions: Table 2; read-out: Activity (IC50, inhibition of TNFα binding to TNFα R1/Fc).
T1 construct: purchased R&D Systems
T1 sequence (P01375 77-233 limits assumed, species assumed): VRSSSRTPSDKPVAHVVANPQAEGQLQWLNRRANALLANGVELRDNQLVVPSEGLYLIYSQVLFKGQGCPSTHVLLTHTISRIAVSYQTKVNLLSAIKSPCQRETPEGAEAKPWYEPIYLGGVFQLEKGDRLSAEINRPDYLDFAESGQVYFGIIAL
Method in brief: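 Plates were coated with TNFα at 15 nM. Test compound and 8.33 nM receptor-Fc (PBST, 2% DMSO) were first mixed in solution for 30 min at room temperature, then transferred to the plates for another 30 min. Competition was read by absorbance at 450 nm after HRP anti-human IgG Fc detection with TMB.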

Row | SMILES | IC50 [µM]
1 | O=C(O)[C@H](Cc1ccccc1)NC(=O)[C@H]1Cc2ccc(cc2)NC(=O)[C@H](O)[C@@H](O)C(=O)N[C@@H](Cc2cccs2)C(=O)N[C@H](Cc2ccc(Br)cc2)C(=O)N[C@@H](CCc2ccccc2)C(=O)N1 [Compound 436] | < 10
2 | O=C(O)[C@H](Cc1ccccc1)NC(=O)[C@@H]1Cc2ccc(cc2)NC(=O)[C@H](O)[C@@H](O)C(=O)N[C@@H](Cc2cccs2)C(=O)N[C@H](Cc2ccc(Br)cc2)C(=O)N[C@@H](CCc2ccccc2)C(=O)N1 [Compound 437] | 10 to 30
3 | O=C(O)[C@H](Cc1ccccc1)NC(=O)[C@H]1Cc2ccc(cc2)NC(=O)[C@H](O)[C@@H](O)C(=O)N[C@@H](Cc2cccs2)C(=O)N[C@H](Cc2ccc(Br)cc2)C(=O)N[C@@H](Cc2ccccc2)C(=O)N1 [Compound 438] | < 10
4 | O=C(O)[C@H](Cc1ccccc1)NC(=O)[C@@H]1Cc2ccc(cc2)NC(=O)[C@H](O)[C@@H](O)C(=O)N[C@@H](Cc2cccs2)C(=O)N[C@H](Cc2ccc(Br)cc2)C(=O)N[C@@H](Cc2ccccc2)C(=O)N1 [Compound 439] | 30 to 100
5 | O=C1CCC(=O)N[C@H](CCc2ccccc2)C(=O)N[C@@H](Cc2ccc(Br)cc2)C(=O)N[C@H](Cc2ccccc2)C(=O)N[C@@H](C(=O)N[C@@H](Cc2ccccc2)C(=O)O)Cc2ccc(cc2)N1 [Compound 440] ([d(hPhe)][Phe(4-Br)][dF][dPhe(4-NH2)]F-OH; linker N-4 via Suc) | 10 to 30
6 | O=C1CCC(=O)N[C@H](CCc2ccccc2)C(=O)N[C@@H](Cc2ccc(Cl)cc2Cl)C(=O)N[C@H](Cc2ccccc2)C(=O)N[C@@H](C(=O)N[C@@H](Cc2ccccc2)C(=O)O)Cc2ccc(cc2)N1 [Compound 441] ([d(hPhe)][Phe(2,4-Cl2)][dF][dPhe(4-NH2)]F-OH; linker N-4 via Suc) | 10 to 30
7 | O=C(O)[C@H](Cc1ccccc1)NC(=O)[C@@H]1Cc2ccc(cc2)NC(=O)[C@H](O)[C@@H](O)C(=O)N[C@H](Cc2cccs2)C(=O)N[C@@H](Cc2ccc(-c3ccc(Cl)cc3)cc2)C(=O)N[C@H](Cc2ccccc2)C(=O)N1 [Compound 443] | 10 to 30
8 | O=C1CCC(=O)N[C@H](Cc2cccs2)C(=O)N[C@@H](Cc2ccc(-c3ccccc3)cc2)C(=O)N[C@H](CCc2ccccc2)C(=O)N[C@H](C(=O)N[C@H](Cc2ccccc2)C(=O)O)Cc2ccc(cc2)N1 [Compound 444] ([d2Thi][Bip][d(hPhe)][Phe(4-NH2)][dF]-OH; linker N-4 via Suc) | 30 to 100
9 | O=C1CCC(=O)N[C@H](Cc2cccs2)C(=O)N[C@@H](Cc2ccc(-c3ccccc3)cc2)C(=O)N[C@H](CCc2ccccc2)C(=O)N[C@H](C(=O)N[C@@H](Cc2ccccc2)C(=O)O)Cc2ccc(cc2)N1 [Compound 445] ([d2Thi][Bip][d(hPhe)][Phe(4-NH2)]F-OH; linker N-4 via Suc) | 10 to 30
10 | C[C@@H](NC(=O)[C@@H]1Cc2ccc(cc2)NC(=O)CCC(=O)N[C@H](Cc2cccs2)C(=O)N[C@@H](Cc2ccc(-c3ccccc3)cc2)C(=O)N[C@H](CCc2ccccc2)C(=O)N1)C(=O)O [Compound 446] ([d2Thi][Bip][d(hPhe)][Phe(4-NH2)][dA]-OH; linker N-4 via Suc) | > 100
11 | C[C@H](NC(=O)[C@@H]1Cc2ccc(cc2)NC(=O)CCC(=O)N[C@H](Cc2cccs2)C(=O)N[C@@H](Cc2ccc(-c3ccccc3)cc2)C(=O)N[C@H](CCc2ccccc2)C(=O)N1)C(=O)O [Compound 447] ([d2Thi][Bip][d(hPhe)][Phe(4-NH2)]A-OH; linker N-4 via Suc) | > 100
12 | O=C(O)CCNC(=O)[C@@H]1Cc2ccc(cc2)NC(=O)CCC(=O)N[C@H](Cc2cccs2)C(=O)N[C@@H](Cc2ccc(-c3ccccc3)cc2)C(=O)N[C@H](CCc2ccccc2)C(=O)N1 [Compound 448] ([d2Thi][Bip][d(hPhe)][Phe(4-NH2)][βAla]-OH; linker N-4 via Suc) | 10 to 30
13 | O=C(O)CCCNC(=O)[C@@H]1Cc2ccc(cc2)NC(=O)CCC(=O)N[C@H](Cc2cccs2)C(=O)N[C@@H](Cc2ccc(-c3ccccc3)cc2)C(=O)N[C@H](CCc2ccccc2)C(=O)N1 [Compound 449] ([d2Thi][Bip][d(hPhe)][Phe(4-NH2)][GABA]-OH; linker N-4 via Suc) | > 100
14 | O=C(O)CCCCNC(=O)[C@@H]1Cc2ccc(cc2)NC(=O)CCC(=O)N[C@H](Cc2cccs2)C(=O)N[C@@H](Cc2ccc(-c3ccccc3)cc2)C(=O)N[C@H](CCc2ccccc2)C(=O)N1 [Compound 450] ([d2Thi][Bip][d(hPhe)][Phe(4-NH2)][Ava]-OH; linker N-4 via Suc) | 30 to 100
15 | O=C1CCC(=O)N[C@H](Cc2cccs2)C(=O)N[C@@H](Cc2ccc(-c3ccccc3)cc2)C(=O)N[C@H](CCc2ccccc2)C(=O)N[C@H](C(=O)NC2(C(=O)O)CC2)Cc2ccc(cc2)N1 [Compound 451] ([d2Thi][Bip][d(hPhe)][Phe(4-NH2)][Ac3c]-OH; linker N-4 via Suc) | 30 to 100
16 | CC(C)(NC(=O)[C@@H]1Cc2ccc(cc2)NC(=O)CCC(=O)N[C@H](Cc2cccs2)C(=O)N[C@@H](Cc2ccc(-c3ccccc3)cc2)C(=O)N[C@H](CCc2ccccc2)C(=O)N1)C(=O)O [Compound 452] ([d2Thi][Bip][d(hPhe)][Phe(4-NH2)][Aib]-OH; linker N-4 via Suc) | > 100

Row | SMILES | IC50 [µM]
17 | O=C(O)CNC(=O)[C@@H]1Cc2ccc(cc2)NC(=O)CCC(=O)N[C@H](Cc2cccs2)C(=O)N[C@@H](Cc2ccc(-c3ccccc3)cc2)C(=O)N[C@H](CCc2ccccc2)C(=O)N1 [Compound 453] ([d2Thi][Bip][d(hPhe)][Phe(4-NH2)]G-OH; linker N-4 via Suc) | > 100
18 | O=C1CCC(=O)N[C@H](Cc2ccccc2)C(=O)N[C@@H](Cc2ccc(-c3ccccc3)cc2)C(=O)N[C@H](CCc2ccccc2)C(=O)N[C@H](C(=O)O)Cc2ccc(cc2)N1 [Compound 454] ([dF][Bip][d(hPhe)][Phe(4-NH2)]-OH; linker N-4 via Suc) | 10 to 30
19 | O=C1CCC(=O)N[C@H](Cc2ccccc2)C(=O)N[C@@H](Cc2ccc(-c3ccccc3)cc2)C(=O)N[C@H](CCc2ccccc2)C(=O)N[C@H](C(=O)N[C@H](Cc2ccccc2)C(=O)O)Cc2ccc(cc2)N1 [Compound 455] ([dF][Bip][d(hPhe)][Phe(4-NH2)][dF]-OH; linker N-4 via Suc) | > 100
20 | O=C1CCC(=O)N[C@H](Cc2ccccc2)C(=O)N[C@@H](Cc2ccc(-c3ccccc3)cc2)C(=O)N[C@H](CCc2ccccc2)C(=O)N[C@H](C(=O)N[C@@H](Cc2ccccc2)C(=O)O)Cc2ccc(cc2)N1 [Compound 456] ([dF][Bip][d(hPhe)][Phe(4-NH2)]F-OH; linker N-4 via Suc) | > 100
21 | C[C@@H](NC(=O)[C@@H]1Cc2ccc(cc2)NC(=O)CCC(=O)N[C@H](Cc2ccccc2)C(=O)N[C@@H](Cc2ccc(-c3ccccc3)cc2)C(=O)N[C@H](CCc2ccccc2)C(=O)N1)C(=O)O [Compound 457] ([dF][Bip][d(hPhe)][Phe(4-NH2)][dA]-OH; linker N-4 via Suc) | > 100
22 | C[C@H](NC(=O)[C@@H]1Cc2ccc(cc2)NC(=O)CCC(=O)N[C@H](Cc2ccccc2)C(=O)N[C@@H](Cc2ccc(-c3ccccc3)cc2)C(=O)N[C@H](CCc2ccccc2)C(=O)N1)C(=O)O [Compound 458] ([dF][Bip][d(hPhe)][Phe(4-NH2)]A-OH; linker N-4 via Suc) | > 100
23 | O=C(O)CCNC(=O)[C@@H]1Cc2ccc(cc2)NC(=O)CCC(=O)N[C@H](Cc2ccccc2)C(=O)N[C@@H](Cc2ccc(-c3ccccc3)cc2)C(=O)N[C@H](CCc2ccccc2)C(=O)N1 [Compound 459] ([dF][Bip][d(hPhe)][Phe(4-NH2)][βAla]-OH; linker N-4 via Suc) | > 100
24 | O=C(O)CCCNC(=O)[C@@H]1Cc2ccc(cc2)NC(=O)CCC(=O)N[C@H](Cc2ccccc2)C(=O)N[C@@H](Cc2ccc(-c3ccccc3)cc2)C(=O)N[C@H](CCc2ccccc2)C(=O)N1 [Compound 460] ([dF][Bip][d(hPhe)][Phe(4-NH2)][GABA]-OH; linker N-4 via Suc) | > 100
25 | O=C(O)CCCCNC(=O)[C@@H]1Cc2ccc(cc2)NC(=O)CCC(=O)N[C@H](Cc2ccccc2)C(=O)N[C@@H](Cc2ccc(-c3ccccc3)cc2)C(=O)N[C@H](CCc2ccccc2)C(=O)N1 [Compound 461] ([dF][Bip][d(hPhe)][Phe(4-NH2)][Ava]-OH; linker N-4 via Suc) | > 100
26 | O=C(O)CNC(=O)[C@@H]1Cc2ccc(cc2)NC(=O)CCC(=O)N[C@H](Cc2ccccc2)C(=O)N[C@@H](Cc2ccc(-c3ccccc3)cc2)C(=O)N[C@H](CCc2ccccc2)C(=O)N1 [Compound 462] ([dF][Bip][d(hPhe)][Phe(4-NH2)]G-OH; linker N-4 via Suc) | > 100
27 | O=C1CCNC(=O)c2ccc(cc2)C[C@@H](C(=O)O)NC(=O)[C@H](Cc2ccccc2)NC(=O)[C@H](Cc2ccc(-c3ccccc3)cc2)NC(=O)[C@H](CCc2ccccc2)N1 [Compound 463] ([βAla][hPhe][Bip]F[Phe(4-COOH)]-OH; lactam N-5) | > 100
28 | O=C1CCNC(=O)c2ccc(cc2)C[C@@H](C(=O)O)NC(=O)[C@H](Cc2ccccc2)NC(=O)[C@H](Cc2ccc(-c3ccccc3)cc2)NC(=O)[C@@H](CCc2ccccc2)N1 [Compound 464] ([βAla][d(hPhe)][Bip]F[Phe(4-COOH)]-OH; lactam N-5) | < 10
29 | O=C1CCNC(=O)c2ccc(cc2)C[C@@H](C(=O)O)NC(=O)[C@H](Cc2ccccc2)NC(=O)[C@@H](Cc2ccc(-c3ccccc3)cc2)NC(=O)[C@H](CCc2ccccc2)N1 [Compound 465] ([βAla][hPhe][dBip]F[Phe(4-COOH)]-OH; lactam N-5) | < 10
30 | O=C1CCNC(=O)c2ccc(cc2)C[C@@H](C(=O)O)NC(=O)[C@H](Cc2ccccc2)NC(=O)[C@@H](Cc2ccc(-c3ccccc3)cc2)NC(=O)[C@@H](CCc2ccccc2)N1 [Compound 466] ([βAla][d(hPhe)][dBip]F[Phe(4-COOH)]-OH; lactam N-5) | > 100
31 | O=C1CCNC(=O)c2ccc(cc2)C[C@@H](C(=O)O)NC(=O)[C@@H](Cc2ccccc2)NC(=O)[C@H](Cc2ccc(-c3ccccc3)cc2)NC(=O)[C@H](CCc2ccccc2)N1 [Compound 467] ([βAla][hPhe][Bip][dF][Phe(4-COOH)]-OH; lactam N-5) | > 100
